{"source": "patent US8410170B2", "about": "“Use of isothiocyanates compounds in treating prostatic diseases and skin cancer” (Wuxi JC Pharmaceutical Technology Co., Ltd., priority 2005, dated 2013)", "key": {"[1]": {"tested_on": "human prostate cancer cell line LNCaP", "assay": "MTT and SRB cell growth assay, LNCaP", "type": "cell-based", "experimental": "MTT and SRB method as described in the reference (Kreis, Budman et al. 1997). Briefly, human prostate cancer cells grown exponentially were aliquoted into 96-well plates at a density of 5000 cells/200 μl per well. Twenty-four hrs after the incubation, the cells were exposed for three or seven days to serial dilutions of indicated isothiocyanate. After the incubation, 100 μl of the medium was removed from each of the wells and 50 μl solution of 3-(4,5-dimethyl-thiazol-2-yl)-2,5-diphenyltetrazolium bromide (MTT) was added, the cells were incubated for an additional 4 hrs and then 200 μl of 0.04 N HCl-isopropanol was added to each well to dissolve the black formazan precipitates. The absorbance was measured at wavelength 540 nm. For SRB method, remove the medium after 72 hrs. The cells on 96-well dishes were fixed with 10% trichloride acetic acid for 1 hr, air-dried for 24 hrs. The cells were then stained with 50 μl of SRB (sulforhodamine B) for […]. After extensive washes with 1% acetic acid for 5 times, air-dried, the purple protein-SRB complex was dissolved in 200 μl 10 mM Tris-HCl buffer (pH 10.0), and the absorbance was measured at the wavelength of 540 and 630 nm. The percent of cell survival (T/C%) were calculated based on the results of test groups to that of the control group. The semi-exponential curves of the percent of cell survival (T/C%) to the drug concentrations (FIG. 8) and IC50 were obtained by using Sigma-plot program."}, "[2]": {"tested_on": "xenograft B16 mouse tumor", "settings": "15 days", "experimental": "The B16 mouse melanoma cells at exponential growth phase were suspended in PBS. […] Adjusted the suspension to a cell concentration of approximately 1×10^7/ml. 0.2 ml of the suspension were transplanted subcutaneously into right axillary subcutis for passaging.\nUnder sterile condition the xenograft B16 mouse tumor in mice was stripped from axillary subcutis. After cutting by scissors, the tumor with saline (1:3) was ground in a glass homogenizer. Monocell suspension was made with saline. […] Then adjusted the suspension to a cell density of approximately 1×10^7/ml with saline. 0.2 ml were transplanted subcutaneously into right axillary subcutis of each mouse. After transplanting, randomly divided the mouse into 5 groups, 12 each.\nTumors were taken out, sizes and weights were measured, and the percent of inhibitions were calculated."}, "GSTP1": {"tested_on": "GSTP1", "assay": "Western blot to detect GSTP1 protein in LNCaP cells", "type": "cell-based, human", "settings": "LNCaP cells exposed 24 hrs", "experimental": "Western blot to detect GSTP1 protein (FIG. 1): […] The cells were harvested, washed and total cellular proteins were extracted as described previously (Wang, […], et al. […] Cancer Res 61(20): 7544-51, 2001). Fifty μg cellular extracts were separated on a SDS-PAGE, electro-transferred to nitrocellulose filters, and immunoblotted initially with antibodies against GSTP1. The same membranes were stripped and re-probed with β-actin for loading control. The result was recorded by ECL films."}, "BPH": {"tested_on": "BPH", "assay": "Therapeutic effects on BPH: Test One (castrated rats, testosterone propionate)", "type": "in vivo, SD rats", "settings": "for Average Weight of Prostate: one month", "experimental": "Sixty male SD rats were randomly divided into 6 groups, ten each. The animals were anesthetized using ketamine and castrated by removing testis under sterile conditions. After the surgery, the penicillin was injected to prevent the animals from infection. One week later, the testosterone propionate was injected subcutaneously at dose of 1 mg/rat for a month, once a day. Group 1 was served as a negative control group, and the animals of group 1 were given saline orally without any active pharmaceutical ingredient for a month beginning on the same day the testosterone propionate was injected. Group 2 was served as positive control group in which animals were given estradiol subcutaneously at a dose of 0.1 mg/rat for a month beginning on the same day the testosterone propionate was injected. Groups from 3 to 6 was served as drug treatment groups in which animals were given tested articles on the same day the testosterone propionate was injected.\nTwenty-four hrs after the last dosage, the animals were euthanized and weighed. Volume and weight of prostate were measured. The averages of volume/weight and organ coefficient (average weight of prostate/average of body weight) were calculated, and statistical analysis performed (t test)."}, "androgen-induced BPH": {"tested_on": "androgen-induced BPH", "assay": "Therapeutic effects on BPH: Test Two (castrated rats, testosterone propionate; weights and histopathology)", "type": "in vivo, SD rats", "experimental": "Thirty-six male SD rats were randomly divided into 4 groups, nine each. Group 1 was served as blank control group (pseudo-surgery control group) in which animals were under the same surgical procedures except no testis was sectioned and fed normally. Groups from 2 to 4 were served as treatment groups in which all animals were anesthetized using ketamine and castrated by removing both testises under sterile conditions. After the surgery, the penicillin was injected to prevent the animals from infection. One week later, the testosterone propionate was injected subcutaneously at dose of 5 mg/kg, once a day for a month. […] Group 3 was served as positive control group in which animals were given Proscar by gavage at dose of 0.1 mg/rat/day for a month beginning on the same day that the testosterone propionate was injected.\nTwenty-four hrs after the last dose, the animals were euthanized and weighed. Volume and weight of prostate were measured. The averages of prostate volume/weight and organ coefficient (average weight of prostate/average of body weight) were calculated, and statistical analysis performed (t test).\nProstate tissues of animals from different groups were embedded with paraffin. The tissue sections were stained with H&E for histpathological examination by an anatomical pathologist."}}, "note": "“Also recorded” adds a separate entry of the source. Like-named read-outs stand apart in the source and are kept apart here."}
{"molecule": "S=C=NCCc1ccccc1", "note": "[PEITC, phenethyl isothiocyanate]", "values": [{"measurement": "Percent of Cell Survival (T/C %)", "setting": "[1]; 0.0390 μM, LNCaP", "result": 102.60, "unit": "%"}, {"measurement": "Percent of Cell Survival (T/C %)", "setting": "[1]; 0.0780 μM, LNCaP", "result": 102.10, "unit": "%"}, {"measurement": "Percent of Cell Survival (T/C %)", "setting": "[1]; 0.1562 μM, LNCaP", "result": 88.10, "unit": "%"}, {"measurement": "Percent of Cell Survival (T/C %)", "setting": "[1]; 0.3125 μM, LNCaP", "result": 82.25, "unit": "%"}, {"measurement": "Percent of Cell Survival (T/C %)", "setting": "[1]; 0.6250 μM, LNCaP", "result": 82.25, "unit": "%"}, {"measurement": "Percent of Cell Survival (T/C %)", "setting": "[1]; 1.2500 μM, LNCaP", "result": 78.12, "unit": "%"}, {"measurement": "Percent of Cell Survival (T/C %)", "setting": "[1]; 2.5000 μM, LNCaP", "result": 30.24, "unit": "%"}, {"measurement": "Percent of Cell Survival (T/C %)", "setting": "[1]; 5.0000 μM, LNCaP", "result": 10.06, "unit": "%"}, {"measurement": "Percent of Cell Survival (T/C %)", "setting": "[1]; 10.0000 μM, LNCaP", "result": 1.52, "unit": "%"}, {"measurement": "Percent of Cell Survival (T/C %)", "setting": "[1]; 20.0000 μM, LNCaP", "result": 0.56, "unit": "%"}, {"measurement": "IC50", "setting": "[1]; Homo sapiens, LNCaP, MTT and SRB, read-out: IC50, growth inhibition", "result": "800 to 1500", "unit": "nM"}, {"measurement": "inhibitory effect on growth of human prostate cancer cells stronger than B16 cells", "setting": "[1]; LNCaP versus B16", "result": "8-10 times"}, {"measurement": "Changes in Body Weight", "setting": "[2]; PEITC 70 mg/kg/d gavage (Example 13-16)", "result": "9.78 ± 4.28", "unit": "g"}, {"measurement": "Average of Tumor Weight", "setting": "[2]; PEITC 70 mg/kg/d gavage", "result": "1.23 ± 0.68", "unit": "g"}, {"measurement": "Inhibition", "setting": "[2]; PEITC 70 mg/kg/d gavage", "result": 39.23, "unit": "%"}, {"measurement": "Changes in Body Weight", "setting": "[2]; PEITC 120 mg/kg/d gavage (Example 13-16)", "result": "6.34 ± 3.42", "unit": "g"}, {"measurement": "Average of Tumor Weight", "setting": "[2]; PEITC 120 mg/kg/d gavage", "result": "0.91 ± 0.23**∇ g"}, {"measurement": "Inhibition", "setting": "[2]; PEITC 120 mg/kg/d gavage", "result": 58.54, "unit": "%"}, {"measurement": "expression of GSTP1 (Western blot)", "setting": "GSTP1", "result": "significantly restored; also recorded: effectively induce"}, {"measurement": "Average Weight of Prostate", "setting": "BPH; aqueous base formulation (Example 13-11), 1 mg/kg gavage", "result": 0.75, "unit": "g"}, {"measurement": "Average Weight of Prostate", "setting": "BPH; aqueous base formulation (Example 13-11), 4 mg/kg gavage", "result": 0.83, "unit": "g"}, {"measurement": "Organ Coefficient", "setting": "BPH; aqueous base formulation, 1 mg/kg", "result": 0.21, "unit": "%"}, {"measurement": "Organ Coefficient", "setting": "BPH; aqueous base formulation, 4 mg/kg", "result": 0.23, "unit": "%"}, {"measurement": "Average Weight of Prostate", "setting": "BPH; oil base formulation (Example 13-3), 1 mg/kg gavage", "result": 0.91, "unit": "g"}, {"measurement": "Average Weight of Prostate", "setting": "BPH; oil base formulation (Example 13-3), 4 mg/kg gavage", "result": 0.79, "unit": "g"}, {"measurement": "Organ Coefficient", "setting": "BPH; oil base formulation, 1 mg/kg", "result": 0.25, "unit": "%"}, {"measurement": "Organ Coefficient", "setting": "BPH; oil base formulation, 4 mg/kg", "result": 0.23, "unit": "%"}, {"measurement": "Average Body Weight", "setting": "androgen-induced BPH; PEITC 2 mg/kg oral (Example 13-11), one month", "result": "337 ± 23.7", "unit": "g"}, {"measurement": "Average Volume of Prostate", "setting": "androgen-induced BPH; PEITC 2 mg/kg oral, one month", "result": "1.42 ± 0.16", "unit": "cm^3"}, {"measurement": "Average Weight of Prostate", "setting": "androgen-induced BPH; PEITC 2 mg/kg oral, one month", "result": "1.20 ± 0.16", "unit": "g"}, {"measurement": "Inhibition of Organ Coefficient", "setting": "androgen-induced BPH; PEITC 2 mg/kg oral, one month", "result": 16.28, "unit": "%"}, {"measurement": "Organ Coefficient", "setting": "androgen-induced BPH; PEITC 2 mg/kg oral, one month", "result": "0.36 ± 0.06", "unit": "%"}, {"measurement": "Acinar Density: no. of animals with score 0", "setting": "androgen-induced BPH; PEITC 2 mg/kg, 9 animals", "result": 7}, {"measurement": "Acinar Density: no. of animals with score +", "setting": "androgen-induced BPH; PEITC 2 mg/kg, 9 animals", "result": 2}, {"measurement": "Acinar Density: no. of animals with score ++", "setting": "androgen-induced BPH; PEITC 2 mg/kg, 9 animals", "result": 0}, {"measurement": "Acinar Density: no. of animals with score +++", "setting": "androgen-induced BPH; PEITC 2 mg/kg, 9 animals", "result": 0}, {"measurement": "Connective tissue proliferation, or papillary hyperplasia: no. of animals with score 0", "setting": "androgen-induced BPH; PEITC 2 mg/kg, 9 animals", "result": 8}, {"measurement": "Connective tissue proliferation, or papillary hyperplasia: no. of animals with score +", "setting": "androgen-induced BPH; PEITC 2 mg/kg, 9 animals", "result": 1}, {"measurement": "Connective tissue proliferation, or papillary hyperplasia: no. of animals with score ++", "setting": "androgen-induced BPH; PEITC 2 mg/kg, 9 animals", "result": 0}, {"measurement": "Connective tissue proliferation, or papillary hyperplasia: no. of animals with score +++", "setting": "androgen-induced BPH; PEITC 2 mg/kg, 9 animals", "result": 0}, {"measurement": "Enlargement of Lumen of Gland: no. of animals with score 0", "setting": "androgen-induced BPH; PEITC 2 mg/kg, 9 animals", "result": 3}, {"measurement": "Enlargement of Lumen of Gland: no. of animals with score +", "setting": "androgen-induced BPH; PEITC 2 mg/kg, 9 animals", "result": 6}, {"measurement": "Enlargement of Lumen of Gland: no. of animals with score ++", "setting": "androgen-induced BPH; PEITC 2 mg/kg, 9 animals", "result": 0}, {"measurement": "Enlargement of Lumen of Gland: no. of animals with score +++", "setting": "androgen-induced BPH; PEITC 2 mg/kg, 9 animals", "result": 0}, {"measurement": "Histopathological score of BPH, Average X ± SD", "setting": "androgen-induced BPH; PEITC 2 mg/kg, 9 animals", "result": "1.78 ± 1.09"}, {"measurement": "Secretions of Gland: no. of animals with score 0", "setting": "androgen-induced BPH; PEITC 2 mg/kg, 9 animals", "result": 3}, {"measurement": "Secretions of Gland: no. of animals with score +", "setting": "androgen-induced BPH; PEITC 2 mg/kg, 9 animals", "result": 5}, {"measurement": "Secretions of Gland: no. of animals with score ++", "setting": "androgen-induced BPH; PEITC 2 mg/kg, 9 animals", "result": 1}, {"measurement": "Secretions of Gland: no. of animals with score +++", "setting": "androgen-induced BPH; PEITC 2 mg/kg, 9 animals", "result": 0}, {"measurement": "lumen, secretary materials in the lumen and density of prostatic acinars, versus untreated BPH tissues (slide)", "setting": "androgen-induced BPH; PEITC 2 mg/kg, FIG. 6.5", "result": "reduced"}]}
